Results from patent US20260234139A1, “PGDH INHIBITORS AND METHODS OF MAKING AND USING” (Epirium Bio Inc., priority 2023, published 2026).
pEC50, pIC50: −log10 of the molar value.

Legend:
A549 = A549 EC50 (cell assay, method not described); type: cell-based; conditions: Homo sapiens, A549, A549
15-PGDH/HPGD = biological target: T1, 15-PGDH/HPGD (Homo sapiens, UniProt P15428); experiment: hPGDH inhibitor screening biochemical assay; conditions: 10 nM enzyme, 15 μM Prostaglandin E2, 0.25 mM NAD, fluorescence ex/em 340/485 nm
T1 construct: purchased R&D System 5660-DH
T1 sequence (P15428 1-266): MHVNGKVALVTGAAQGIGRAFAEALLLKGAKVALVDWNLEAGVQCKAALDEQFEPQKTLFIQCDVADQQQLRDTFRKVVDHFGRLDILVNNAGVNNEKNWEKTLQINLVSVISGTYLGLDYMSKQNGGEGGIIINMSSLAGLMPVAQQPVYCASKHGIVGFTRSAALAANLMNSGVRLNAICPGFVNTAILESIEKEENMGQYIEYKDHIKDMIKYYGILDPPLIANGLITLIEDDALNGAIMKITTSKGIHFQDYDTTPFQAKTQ
Protocol: A hydroxyprostaglandin dehydrogenase inhibition screening biochemical assay can be performed to assess the synthesized inhibitors provided herein. Provided herein is an exemplary biochemical assay for hPGDH inhibitor screening.
The in vitro biochemical assay can be performed in white, 384 plates in total 20 μl reaction volume consisting of 10 nM of 15-PGDH/HPGD (R&D System #5660-DH), 15 μM Prostaglandin E2 (Sigma, Cat #P5640-10 MG) and 0.25 mM B-Nicotinamide adenine dinucleotide sodium salt (Sigma, Cat #N0632-5G) made in reaction buffer (50 mM Tris-HCl, pH 7.5, 0.01% Tween 20) at 10-point dose response curve for test/tool compounds. Briefly, 5 μl (4×) of compounds solution and 5 μl (final concentration, 10 nM) of enzyme solution is added to white 384 well plates and incubated for 10 mins at 37° C. 5 μl (4×) of Prostaglandin E2 and 5 μl (4×) of β-Nicotinamide adenine dinucleotide sodium salt is added to the wells and incubated for 10 mins at room temperature. Fluorescence is recorded at ex/em=340 nm/485 nm.

Row | Compound | pEC50 (A549) | pIC50 (15-PGDH/HPGD)
1 | Cc1cc(-n2ncc3cc([C@H](O)COC4CCC4)cnc32)ccc1C(=O)O [Compound 95B] | ≤ 6.00 | 6.00 to 7.00
2 | CCOC[C@@H](O)c1cnc2c(cnn2-c2cccc(-c3nnc[nH]3)c2)c1 [Compound 23B] | > 7.00 | > 7.00
3 | C[C@H]1C[C@H](OC[C@@H](O)c2cnc3c(cnn3-c3ccc(C(=O)O)cc3)c2)C1 [Compound 127D] | > 7.00 | > 7.00
4 | CC(C)OCC(O)c1cnc2c(cnn2-c2ccc(CCC(=O)O)c(F)c2)c1 (stereo in doubt) [Compound 70A, (R)-3-(2-fluoro-4-(5-(1-hydroxy-2-isopropoxyethyl)-1H-pyrazolo[3,4-b]pyridin-1-yl)phenyl) propanoic acid] | > 7.00 | > 7.00
5 | COCC[C@@H](O)c1cnc2c(cnn2-c2cccc(-c3nnc[nH]3)c2)c1 [Compound 36A] | > 7.00 | > 7.00
6 | CC(C)OC[C@H](O)c1cnc2c(cnn2-c2ccc(CC(=O)O)cc2)c1 [Compound 71B] | ≤ 6.00 | ≤ 6.00
7 | O=C(O)c1ccc(-n2ccc3nc([C@@H](O)C4CC(F)(F)C4)cnc32)cc1 [Compound 46B] | 6.00 to 7.00 | > 7.00
8 | O[C@H](c1cnc2c(cnn2-c2cccc(-c3nnc[nH]3)c2)c1)C1CC2CC2C1 (some centres unmarked) [Compound 50B] | > 7.00 | > 7.00
9 | C[S+]([O-])c1ccc(-n2ncc3cc([C@@H](O)COC4CCC4)cnc32)cc1 (some centres unmarked) [Compound 124A] | > 7.00 | > 7.00
10 | O=C(O)c1ccc(-n2ncc3cc([C@H](O)COC4CCC4)cnc32)cc1F [Compound 94B] | ≤ 6.00 | > 7.00
11 | CCOC(C)(C)[C@H](O)c1cnc2c(cnn2-c2ccc(C(=O)O)cc2)c1 [Compound 53A] | 6.00 to 7.00 | 6.00 to 7.00
12 | CC(C)OC[C@@H](O)c1cnc2c(ccn2-c2cccc(-c3nnc[nH]3)c2)c1 [Compound 29B] | > 7.00 | > 7.00
13 | O[C@H](c1cnc2c(cnn2-c2ccc3nc(N4CCOCC4)nn3c2)c1)C1COC1 [Compound 64A] | 6.00 to 7.00 | 6.00 to 7.00
14 | CC(C)C[C@@H](O)C(O)c1cnc2c(ccn2-c2cccc(-c3nnc[nH]3)c2)c1 (stereo in doubt) [Compound 3A, (1R,2R)-4-methyl-1-[1-[3-(4H-1,2,4-triazol-3-yl)phenyl]pyrrolo[2,3-b]pyridin-5-yl]pentane-1,2-diol] | > 7.00 | > 7.00
15 | CC(C)OC[C@H](O)c1cnc2c(cnn2-c2ccc(OCC(=O)O)cc2)c1 [Compound 78A] | ≤ 6.00 | 6.00 to 7.00
16 | O=C(O)CCc1ccc(-n2ncc3cc([C@@H](O)COC4CCCC4)cnc32)cc1F [Compound 88A] | ≤ 6.00 | 6.00 to 7.00
17 | O=C(O)c1ccc(-n2ncc3cc([C@H](O)C4COC4)ccc32)cc1 [Compound 120A] | 6.00 to 7.00 | > 7.00
18 | CC(C)OC[C@@H](O)c1cnc2c(ccn2-c2ccc(C(=O)O)cc2)n1 [Compound 49B] | 6.00 to 7.00 | > 7.00
19 | O[C@@H](c1cnc2c(ccn2-c2cccc(-c3nnc[nH]3)c2)c1)C1CCC1 [Compound 10B] | > 7.00 | > 7.00
20 | O[C@H](c1cnc2c(cnn2-c2cccc(-c3nnc[nH]3)c2)c1)C1(OCC(F)F)CC1 [Compound 73A] | 6.00 to 7.00 | > 7.00
21 | CSc1ccc(-n2ncc3cc([C@H](O)COC4CCC4)cnc32)cc1 [Compound 119B] | ≤ 6.00 | ≤ 6.00
22 | O[C@@H](COC1CC1)c1cnc2c(cnn2-c2cccc(-c3nnc[nH]3)c2)c1 [Compound 37A] | 6.00 to 7.00 | > 7.00
23 | CCOC1([C@H](O)c2cnc3c(cnn3-c3ccc(C(=O)O)cc3)c2)CCC1 [Compound 85A] | ≤ 6.00 | 6.00 to 7.00
24 | Cc1nn(-c2ccc(C(=O)O)cc2)c2ncc([C@H](O)COC3CC3)cc12 [Compound 126B] | 6.00 to 7.00 | > 7.00
25 | CCC1(OC[C@@H](O)c2cnc3c(cnn3-c3ccc(C(=O)O)cc3)c2)CC1 [Compound 93B] | > 7.00 | > 7.00
26 | CCCC(F)(F)[C@H](O)c1cnc2c(ccn2-c2cccc(-c3nnc[nH]3)c2)c1 [Compound 4B] | > 7.00 | > 7.00
27 | CC(F)(F)[C@H](O)c1cnc2c(ccn2-c2cccc(-c3nnc[nH]3)c2)c1 [Compound 5B] | 6.00 to 7.00 | 6.00 to 7.00
28 | CCOC1([C@H](O)c2cnc3c(cnn3-c3ccc4nc(N5CCOCC5)nn4c3)c2)CC1 [Compound 62A] | ≤ 6.00 | ≤ 6.00
